Structures are written as SMILES. Converted amounts (≈) assume the structure as drawn.

Series [1] is described as follows: Solubility test of colchicine in solvents. Format: physicochemical. To be noted: thermodynamic from solid, 25° C. The method, then:
About 2 g of the colchicine raw material was weighed and placed in a 100 ml brown volumetric flask, into which 10 ml of a solvent was added. The mixture was uniformly mixed, placed in a thermostatic oscillator with a water bath at 25° C., and observed periodically, into which the raw material was continuously added once the solution became clear. […] After the saturated solution was centrifuged in a centrifuge, the supernatant was taken and diluted to a suitable concentration, the concentration of which was then determined using the external standard method, and the solubility was calculated.

Series [2] can be described thus: Solubility of colchicine in different types of pressure-sensitive adhesives. The class given is physicochemical. To be noted: for State in the 4098 pressure-sensitive adhesive: 0 days; for Stability (crystallization or not) in the 4098 pressure-sensitive adhesive: room temperature for 4 months. The protocol: Colchicine with different contents was dissolved in pressure-sensitive adhesive systems with different properties.

The solubility is the dissolved amount per volume that the medium holds. In the case of `COc1cc2c(c(OC)c1OC)-c1ccc(OC)c(=O)cc1[C@@H](NC(C)=O)CC2` [colchicine, N-(5,6,7,9-tetrahydro-1,2,3,10-tetramethoxy-9-oxobenzo[α]cycloheptatrienocycloheptatrien-7-yl)-(S)-acetamide], the solubility at 24 h in series [1] (1 M triethanolamine (TEOA) in ethanol, organic solvent or mixture, 1M solution of TEOA (triethanolamine) in ethanol) is 740 mg/mL (≈ 1850 mM); in series [1] (organic solvent or mixture, DGME (diethylene glycol monoethyl ether)), 350 mg/mL (≈ 876 mM); in series [1] (organic solvent or mixture, Ethanol:ethyl acetate (1:1, v/v)), 380 mg/mL (≈ 951 mM); in series [1] (organic solvent or mixture, Ethyl acetate), 0.48 mg/mL (≈ 1.2 mM); in series [1] (organic solvent or mixture, ethanol), 590 mg/mL (≈ 1480 mM); in series [1] (water), greater than 1000 mg/mL. The “State in the 4098 pressure-sensitive adhesive” value in series [2] (content higher than 5%) is reported as “semitransparent”; in series [2] (content of colchicine 5% or less), “transparent”. The “Stability (crystallization or not) in the 4098 pressure-sensitive adhesive” value in series [2] (content 5% or less) is on record as “no crystallization is found”; in series [2] (content more than 5%), “crystallization is precipitated”. In addition, in series [2] (without a permeation enhancer), the “Highest solubility of colchicine in typical acrylic pressure-sensitive adhesives” value is given as “about 5%”.
